# Measured values published in publication PMC7961380, “A Systematic Study of the In Vitro Pharmacokinetics and Estimated Human In Vivo Clearance of Indole and Indazole-3-Carboxamide Synthetic Cannabinoid Receptor Agonists Detected on the Illicit Drug Market” (Molecules, 2021).
# Read-outs that look alike come from different tables or passages of the source.
# Legend:
# [1] = Plasma protein binding by equilibrium dialysis; type: in vitro ADME, human; settings: 37 °C; for fraction unbound at 5 h, 10 µg mL^−1: human, pooled human plasma, pH 7.4, equilibrium dialysis 5 h
# Protocol: Plasma protein binding was assessed by equilibrium dialysis in a 96-well dialysis block (HTDialysis, Ledyard, CT, USA). Dialysis membranes (12–14 kDa) were soaked in deionised water for at least 60 min. Membranes were soaked overnight at 4 °C in ethanol:water 20:80% v/v and then rinsed with deionised water immediately prior to use. […] Spiked plasma (150 µL) was dialysed against isotonic phosphate buffer (pH 7.4) (150 µL) for 5 h at 37 °C with shaking at 100 rpm. Thermal degradation controls for each test compound were kept at 37 °C and 4 °C. Blank control plasma and buffer were included in the incubation. Following incubation, dialysed plasma samples and thermal degradation controls (50 µL) were added to drug-free buffer (50 µL), and dialysed buffer samples (50 µL) were added to drug-free plasma (50 µL). […] Supernatant (150 µL) was added to 50 µL deionised water and samples were analysed by UPLC-MS/MS as described above. Dialysed buffer from each well was tested for protein contamination using BCA protein assay reagent to determine whether membranes had been compromised.
# Bu = Analyte/IS ratio determined in buffer side (2) Fraction unbound, fu=(100−% bound)/100
# [2] = Metabolic stability, pooled human liver microsome incubations; settings: for Predicted In Vivo Hepatic Clearance, CLH: from pHLM CLint, well-stirred model with plasma fu, Q 21 mL min^−1 kg^−1; for T1/2: pHLM 0.5 mg mL^−1, 0.5 µM, NADPH, 37 °C; for T1/2 / Microsomal Intrinsic Clearance, CLint micr: n ≥ 3 ± SD
# Protocol: Total incubation volume was 500 µL. Procedure: Test compound working solutions (50 µM in potassium phosphate buffer (pH 7.4)) were prepared (<1% DMSO). pHLM were thawed and diluted in potassium phosphate buffer (pH 7.4). […] Reactions were quenched in 200 µL ACN spiked with donepezil (IS, 50 ng mL^−1). […] Samples were analysed by UPLC-MS/MS in a 96 deep-well 2 mL plate. Each SCRA was incubated at least in triplicate but additional incubations were carried out across a number of analytical batches, giving greater replication and a greater understanding of system variability. Microsomal scaling factors used for human liver microsome incubations in the literature vary. Intrinsic clearance and predicted in vivo clearance rates calculated using alternative scaling factors found in the literature is provided in Section S6 of the supplementary information, to aid comparison of data between publications.
# Equations used for in vitro intrinsic clearance calculation and human in vivo clearance […]
# The equations used for in vitro intrinsic clearance calculation and human in vivo clearance estimation […]
# Microsomal clearance (HLM incubations) in mL min-1 mg microsomal protein-1 [3]
# Intrinsic clearance (whole-liver dimensions) (HLM incubations) in mL min-1 kg-1 [3] CL = k x V x [Liver](g) x SF Eqn. 7 […]
# mg g microsomal protein-1 [7]
# Intrinsic clearance (whole-liver dimensions) (HHep incubations) in mL min-1 kg-1 [4] CL = k x V x hepatocytes/g liver x [Liver](g) Eqn. 8 […]
# Where: hepatocytes/g liver = 107x10^6 cells/g liver
# Hepatic clearance in mL min-1 kg-1 [3]
# […] Eqn. 9
# Where: Q = hepatic blood flow, 21 mL min-1 kg-1 [9]; fu = fraction unbound (plasma); CLint = […]
# Estimated human hepatic extraction ratio [5]
# Intrinsic clearance data – pooled human liver microsome incubations […]
# table S4-28. Intrinsic clearance and predicted in vivo data calculated using alternative microsomal scaling factors found in the literature – 32 [10] and 45 [11] mg microsomal protein per gram liver – are provided in tables S29 and S30, respectively.
# [3] = Short-term plasma stability with and without esterase inhibitors; settings: 3 h, 37 °C; for Parent Compound Remaining (%), Esterase Inhibitors: pH 7.4, BNPP and PMSF 500 µM each; for Parent Compound Remaining (%), No Esterase Inhibitors: pH 7.4, pooled human plasma
# [4] = system: pooled human cryopreserved hepatocytes (pHHeps); assay: Metabolic stability, pooled human cryopreserved hepatocyte incubations; settings: for Predicted In Vivo Hepatic Clearance, CLH: from pHHeps CLint, well-stirred model with plasma fu, Q 21 mL min^−1 kg^−1; for T1/2: pHHeps 0.25 million cells mL^−1, 0.5 µM, 37 °C, n ≥ 3 ± SD; for Intrinsic clearance, CLint: alternative hepatocyte cell density 99x10^6 hepatocytes per gram liver
# [5] = 10 µg mL^−1, read-out: PPB (%) (converted)
# [6] = pHLM, alternative microsomal scaling factor 32 mg microsomal protein per gram liver
# [7] = pHLM, alternative microsomal scaling factor 45 mg microsomal protein per gram liver
# [8] = pHLM, scaling factor 32 mg microsomal protein per gram liver
# [9] = pHLM, scaling factor 45 mg microsomal protein per gram liver
# [10] = pHHeps, 99x10^6 hepatocytes per gram liver
SMILES,"Predicted In Vivo Hepatic Clearance, CLH [2]","Hepatic extraction ratio, EH ([2]; from pHLM incubations)",T1/2 [2],"% parent compound remaining, Average ([2]; pHLM, 3 min)","% parent compound remaining, Average ([2]; pHLM, 6 min)","% parent compound remaining, Average ([2]; pHLM, 9 min)","% parent compound remaining, Average ([2]; pHLM, 15 min)","% parent compound remaining, Average ([2]; pHLM, 30 min)","Intrinsic clearance, CLint [2, 6]","Intrinsic clearance, CLint [2, 7]","Microsomal Intrinsic Clearance, CLint micr ([2]; pHLM)","Hepatic extraction ratio, EH [2, 8]","Predicted in vivo hepatic clearance, CLH [2, 8]","Hepatic extraction ratio, EH [2, 9]","Predicted in vivo hepatic clearance, CLH [2, 9]","Parent Compound Remaining (%), Esterase Inhibitors [3]","Parent Compound Remaining (%), No Esterase Inhibitors [3]","Predicted In Vivo Hepatic Clearance, CLH [4]","Hepatic extraction ratio, EH ([4]; from pHHeps incubations)",T1/2 [4],other results
"COC(=O)[C@H](NC(=O)c1nn(CCCCF)c2ccccc12)C(C)(C)C [(R)-4F-MDMB-BINACA (4), methyl 2-[1-(4-fluorobutyl)-1H-indazole-3-carboxamido]-3,3-dimethylbutanoate]",8.55 ± 0.24 mL/min/kg,0.41 ± 0.012,14 ± 0.68 min,78.8%,72.8%,54.1%,48.4%,26.6%,79 mL/min/kg,112 mL/min/kg,0.096 ± 0.005 mL min^−1 mg Microsomal Protein^−1,0.30 ± 0.010,6.20 mL/min/kg,0.37 ± 0.011,7.78 mL/min/kg,96.0 ± 1.7%,91.1 ± 6.8%,8.77 ± 1.43 mL/min/kg,0.42 ± 0.068,58 ± 17.2 min,"fraction unbound at 5 h, 10 µg mL^−1 [1, 5]: 0.111; Hepatic extraction ratio, EH [4, 10]: 0.40 ± 0.067; Predicted in vivo hepatic clearance, CLH [4, 10]: 8.38 ± 1.40 mL/min/kg; % parent compound remaining, Average ([4]; pHHeps, 3 min): 89.2%; % parent compound remaining, Average ([4]; pHHeps, 6 min): 84.6%; % parent compound remaining, Average ([4]; pHHeps, 9 min): 91.0%; % parent compound remaining, Average ([4]; pHHeps, 15 min): 82.6%; % parent compound remaining, Average ([4]; pHHeps, 30 min): 65.7%; % parent compound remaining, Average ([4]; pHHeps, 45 min): 48.5%; % parent compound remaining, Average ([4]; pHHeps, 60 min): 37.9%; Intrinsic clearance, CLint ([4]; pHHeps): 128 ± 34.6 mL/min/kg"
"COC(=O)[C@H](NC(=O)c1cn(CCCCCF)c2ccccc12)C(C)(C)C [(R)-5F-MDMB-PICA (3), methyl 2-[1-(5-fluoropentyl)-1H-indole-3-carboxamido]-3,3-dimethylbutanoate]",7.22 ± 0.05 mL/min/kg,0.34 ± 0.002,11 ± 0.11 min,72.6%,62.5%,52.6%,36.8%,16.4%,108 ± 1.13 mL/min/kg,152 ± 1.59 mL/min/kg,0.132 ± 0.001 mL min^−1 mg Microsomal Protein^−1,0.24 ± 0.002,5.09 ± 0.04 mL/min/kg,0.31 ± 0.002,6.51 ± 0.05 mL/min/kg,97.7 ± 5.6%,103.2 ± 14.5%,6.27 ± 0.74 mL/min/kg,0.30 ± 0.035,54 ± 9.4 min,"PPB (%) ([1]; equilibrium dialysis 5 h, 10 µg mL^−1): 93.8 ± 0.15%; Fraction Unbound (fu) ([1]; equilibrium dialysis 5 h, plasma): 0.062 ± 0.0015; Hepatic extraction ratio, EH [4, 10]: 0.28 ± 0.034; Predicted in vivo hepatic clearance, CLH [4, 10]: 5.94 ± 0.72 mL/min/kg; % parent compound remaining, Average ([4]; pHHeps, 3 min): 87.4%; % parent compound remaining, Average ([4]; pHHeps, 6 min): 85.8%; % parent compound remaining, Average ([4]; pHHeps, 9 min): 88.6%; % parent compound remaining, Average ([4]; pHHeps, 15 min): 78.8%; % parent compound remaining, Average ([4]; pHHeps, 30 min): 64.9%; % parent compound remaining, Average ([4]; pHHeps, 45 min): 51.8%; % parent compound remaining, Average ([4]; pHHeps, 60 min): 43.7%; Intrinsic clearance, CLint ([4]; pHHeps): 134 ± 22.3 mL/min/kg"
"COC(=O)[C@H](NC(=O)c1nn(CCCCCF)c2ccccc12)C(C)(C)C [(R)-5F-MDMB-PINACA (2), methyl 2-[1-(5-fluoropentyl)-1H-indazole-3-carboxamido]-3,3-dimethylbutanoate]",6.52 ± 0.61 mL/min/kg,0.31 ± 0.029,8.0 ± 1.1 min,71.1%,58.2%,44.4%,28.9%,8.7%,145 mL/min/kg,204 mL/min/kg,0.176 ± 0.024 mL min^−1 mg Microsomal Protein^−1,0.22 ± 0.023,4.53 ± 0.48 mL/min/kg,0.28 ± 0.027,5.85 ± 0.57 mL/min/kg,100.1 ± 7.0%,95.9 ± 6.7%,8.16 ± 0.38 mL/min/kg,0.39 ± 0.018,23 ± 1.8 min,"fraction unbound at 5 h, 10 µg mL^−1 [1, 5]: 0.04; fraction unbound at 5 h, 10 µg mL^−1 ([1]; plasma, read-out: Fraction Unbound (fu)): 0.04 ± 0.0058; half-life ([4]; pHHep lot HUE50-N): 22.9 ± 1.8 min; half-life ([4]; pHHep lot HUE50-P): 6.5 ± 0.13 min; Hepatic extraction ratio, EH [4, 10]: 0.37 ± 0.018; Predicted in vivo hepatic clearance, CLH [4, 10]: 7.78 ± 0.38 mL/min/kg; % parent compound remaining, Average ([4]; pHHeps, 3 min): 84.1%; % parent compound remaining, Average ([4]; pHHeps, 6 min): 67.3%; % parent compound remaining, Average ([4]; pHHeps, 9 min): 55.7%; % parent compound remaining, Average ([4]; pHHeps, 15 min): 45.8%; % parent compound remaining, Average ([4]; pHHeps, 30 min): 27.3%; % parent compound remaining, Average ([4]; pHHeps, 45 min): 17.9%; % parent compound remaining, Average ([4]; pHHeps, 60 min): 13.6%; Intrinsic clearance, CLint ([4]; pHHeps): 309 ± 23.6 mL/min/kg"
